{"source": "ChEMBL document CHEMBL1153552", "about": "“Comparative in vitro pharmacodynamics of caspofungin, micafungin, and anidulafungin against germinated and nongerminated Aspergillus conidia” (2008)", "key": {"Aspergillus flavus [1]": {"test_system": "Aspergillus flavus", "assay": "Antifungal activity against nongerminated Aspergillus flavus assessed as lowest drug concentration that produced short, stubby and highly branched hyphae after 48 hrs by microscopic analysis", "format": "functional", "details": "read-out: MEC"}, "Aspergillus flavus [2]": {"test_system": "Aspergillus flavus", "assay": "Effect on nongerminated Aspergillus flavus metabolic activity assessed as drug concentration at which fungal metabolic activity occurs after 2 hrs by XTT assay", "format": "functional"}, "Aspergillus flavus [3]": {"test_system": "Aspergillus flavus", "assay": "Antifungal activity against germinated Aspergillus flavus assessed as lowest drug concentration that produced short, stubby and highly branched hyphae after 48 hrs by microscopic analysis", "format": "functional", "details": "read-out: MEC"}, "Aspergillus terreus [4]": {"test_system": "Aspergillus terreus", "assay": "Antifungal activity against germinated Aspergillus terreus assessed as absence of visual fungal growth at 128 ug/mL", "format": "functional, organism-based"}, "Aspergillus fumigatus [5]": {"test_system": "Aspergillus fumigatus", "assay": "Antifungal activity against nongerminated Aspergillus fumigatus assessed as lowest drug concentration that produced short, stubby and highly branched hyphae after 48 hrs by microscopic analysis", "format": "functional", "details": "read-out: MEC"}, "Aspergillus terreus [6]": {"test_system": "Aspergillus terreus", "assay": "Ratio of log2 of MEC for germinated Aspergillus terreus to log2 of MEC for nongerminated Aspergillus terreus", "format": "functional"}, "Aspergillus flavus [7]": {"test_system": "Aspergillus flavus", "assay": "Antifungal activity against germinated Aspergillus flavus assessed as absence of visual fungal growth at 64 ug/mL", "format": "functional, organism-based"}, "Aspergillus fumigatus [8]": {"test_system": "Aspergillus fumigatus", "assay": "Induction of maximal metabolic inhibition in nongerminated Aspergillus fumigatus assessed as minimal metabolic activity Ymin after 2 hrs by XTT assay", "format": "functional", "set-up": "scale not given: the % may be the effect or the level left"}, "Aspergillus flavus [9]": {"test_system": "Aspergillus flavus", "assay": "Induction of maximal metabolic inhibition in germinated Aspergillus flavus assessed as minimal metabolic activity Ymin after 2 hrs by XTT assay", "format": "functional", "set-up": "scale not given: the % may be the effect or the level left"}, "Aspergillus terreus [10]": {"test_system": "Aspergillus terreus", "assay": "Antifungal activity against nongerminated Aspergillus terreus assessed as absence of visual fungal growth at 128 ug/mL", "format": "functional, organism-based"}, "Aspergillus terreus [11]": {"test_system": "Aspergillus terreus", "assay": "Induction of maximal metabolic inhibition in nongerminated Aspergillus terreus assessed as minimal metabolic activity Ymin after 2 hrs by XTT assay", "format": "functional", "set-up": "scale not given: the % may be the effect or the level left"}, "Aspergillus fumigatus [12]": {"test_system": "Aspergillus fumigatus", "assay": "Antifungal activity against nongerminated Aspergillus fumigatus assessed as absence of visual fungal growth at 128 ug/mL", "format": "functional, organism-based"}, "Aspergillus flavus [13]": {"test_system": "Aspergillus flavus", "assay": "Effect on Aspergillus flavus metabolic activity assessed number of twofold drug dilutions required for germinated fungal metabolic activity to nongerminated fungal metabolic activity", "format": "functional"}, "Aspergillus fumigatus [14]": {"test_system": "Aspergillus fumigatus", "assay": "Effect on nongerminated Aspergillus fumigatus metabolic activity assessed as drug concentration at which fungal metabolic activity occurs after 2 hrs by XTT assay", "format": "functional"}, "Aspergillus terreus [15]": {"test_system": "Aspergillus terreus", "assay": "Antifungal activity against nongerminated Aspergillus terreus assessed as absence of visual fungal growth at 64 ug/mL", "format": "functional, organism-based"}, "Aspergillus fumigatus [16]": {"test_system": "Aspergillus fumigatus", "assay": "Induction of maximal metabolic inhibition in germinated Aspergillus fumigatus assessed as minimal metabolic activity Ymin after 2 hrs by XTT assay", "format": "functional", "set-up": "scale not given: the % may be the effect or the level left"}, "Aspergillus flavus [17]": {"test_system": "Aspergillus flavus", "assay": "Antifungal activity against nongerminated Aspergillus flavus assessed as absence of visual fungal growth at 128 ug/mL", "format": "functional, organism-based"}, "Aspergillus flavus [18]": {"test_system": "Aspergillus flavus", "assay": "Antifungal activity against nongerminated Aspergillus flavus assessed as absence of visual fungal growth at 64 ug/mL", "format": "functional, organism-based"}, "Aspergillus flavus [19]": {"test_system": "Aspergillus flavus", "assay": "Antifungal activity against germinated Aspergillus flavus assessed as absence of visual fungal growth at 128 ug/mL", "format": "functional, organism-based"}, "Aspergillus fumigatus [20]": {"test_system": "Aspergillus fumigatus", "assay": "Antifungal activity against nongerminated Aspergillus fumigatus assessed as absence of visual fungal growth at 64 ug/mL", "format": "functional, organism-based"}, "Aspergillus fumigatus [21]": {"test_system": "Aspergillus fumigatus", "assay": "Effect on Aspergillus fumigatus metabolic activity assessed number of twofold drug dilutions required for germinated fungal metabolic activity to nongerminated fungal metabolic activity", "format": "functional"}, "Aspergillus fumigatus [22]": {"test_system": "Aspergillus fumigatus", "assay": "Antifungal activity against germinated Aspergillus fumigatus assessed as absence of visual fungal growth at 64 ug/mL", "format": "functional, organism-based"}, "Aspergillus flavus [23]": {"test_system": "Aspergillus flavus", "assay": "Effect on germinated Aspergillus flavus metabolic activity assessed as drug concentration at which fungal metabolic activity occurs after 2 hrs by XTT assay", "format": "functional"}, "Aspergillus terreus [24]": {"test_system": "Aspergillus terreus", "assay": "Antifungal activity against germinated Aspergillus terreus assessed as lowest drug concentration that produced short, stubby and highly branched hyphae after 48 hrs by microscopic analysis", "format": "functional", "details": "read-out: MEC"}, "Aspergillus terreus [25]": {"test_system": "Aspergillus terreus", "assay": "Effect on nongerminated Aspergillus terreus metabolic activity assessed as drug concentration at which fungal metabolic activity occurs after 2 hrs by XTT assay", "format": "functional"}, "Aspergillus terreus [26]": {"test_system": "Aspergillus terreus", "assay": "Antifungal activity against nongerminated Aspergillus terreus assessed as lowest drug concentration that produced short, stubby and highly branched hyphae after 48 hrs by microscopic analysis", "format": "functional", "details": "read-out: MEC"}, "Aspergillus fumigatus [27]": {"test_system": "Aspergillus fumigatus", "assay": "Antifungal activity against nongerminated Aspergillus fumigatus assessed as short, stubby and highly branched hyphae after 48 hrs by microscopy analysis", "format": "functional, organism-based"}, "Aspergillus fumigatus [28]": {"test_system": "Aspergillus fumigatus", "assay": "Effect on germinated Aspergillus fumigatus metabolic activity assessed as drug concentration at which fungal metabolic activity occurs after 2 hrs by XTT assay", "format": "functional"}, "Aspergillus fumigatus [29]": {"test_system": "Aspergillus fumigatus", "assay": "Ratio of log2 of MEC for germinated Aspergillus fumigatus to log2 of MEC for nongerminated Aspergillus fumigatus", "format": "functional"}, "Aspergillus terreus [30]": {"test_system": "Aspergillus terreus", "assay": "Induction of maximal metabolic inhibition in germinated Aspergillus terreus assessed as minimal metabolic activity Ymin after 2 hrs by XTT assay", "format": "functional", "set-up": "scale not given: the % may be the effect or the level left"}, "Aspergillus fumigatus [31]": {"test_system": "Aspergillus fumigatus", "assay": "Antifungal activity against germinated Aspergillus fumigatus assessed as absence of visual fungal growth at 128 ug/mL", "format": "functional, organism-based"}, "Aspergillus flavus [32]": {"test_system": "Aspergillus flavus", "assay": "Ratio of log2 of MEC for germinated Aspergillus flavus to log2 of MEC for nongerminated Aspergillus flavus", "format": "functional"}, "Aspergillus flavus [33]": {"test_system": "Aspergillus flavus", "assay": "Induction of maximal metabolic inhibition in nongerminated Aspergillus flavus assessed as minimal metabolic activity Ymin after 2 hrs by XTT assay", "format": "functional", "set-up": "scale not given: the % may be the effect or the level left"}, "Aspergillus terreus [34]": {"test_system": "Aspergillus terreus", "assay": "Antifungal activity against germinated Aspergillus terreus assessed as absence of visual fungal growth at 64 ug/mL", "format": "functional, organism-based"}, "Aspergillus terreus [35]": {"test_system": "Aspergillus terreus", "assay": "Effect on Aspergillus terreus metabolic activity assessed number of twofold drug dilutions required for germinated fungal metabolic activity to nongerminated fungal metabolic activity", "format": "functional"}, "Aspergillus fumigatus [36]": {"test_system": "Aspergillus fumigatus", "assay": "Antifungal activity against germinated Aspergillus fumigatus assessed as lowest drug concentration that produced short, stubby and highly branched hyphae after 48 hrs by microscopic analysis", "format": "functional", "details": "read-out: MEC"}, "Aspergillus terreus [37]": {"test_system": "Aspergillus terreus", "assay": "Effect on germinated Aspergillus terreus metabolic activity assessed as drug concentration at which fungal metabolic activity occurs after 2 hrs by XTT assay", "format": "functional"}}, "note": "The source made the active and inactive calls. The calls are words filed in the database; no cut-off is given here. Numbered stars: 1 amine (or outer) side, 2 acyl side, 3 side chain; on linkers, the order of the positions; unused ones are H or OH. Bridge positions count the residues as written; N and C are the ends. Square brackets hold non-standard residues; d marks the D form. Peptide text beside a SMILES is read from it. * marks the point of attachment. hTyr(3S-OH,4S-OH,3'-OSO3H) = N[C@H](C(=O)O)[C@H](O)[C@@H](O)c1ccc(O)c(OS(=O)(=O)O)c1; Orn(4R-OH,5R-OH) = O=C([C@H](C[C@@H](O)[C@@H](O)N[*:3])N[*:1])[*:2]; Pro(3S-OH,4S-Me) = C[C@H]1CN[C@H](C(=O)O)[C@H]1O; X1 = CCCCCOc1ccc(-c2cc(-c3ccc(C(=O)*)cc3)no2)cc1; Gln(3R-OH) = NC(=O)C[C@@H](O)[C@H](N)C(=O)O; Hyp = O=C(O)[C@@H]1C[C@@H](O)CN1", "data": [{"molecule": "CCCCCOc1ccc(-c2cc(-c3ccc(C(=O)N[C@H]4C[C@@H](O)[C@@H](O)NC(=O)[C@@H]5[C@@H](O)[C@@H](C)CN5C(=O)[C@H]([C@H](O)CC(N)=O)NC(=O)[C@H]([C@H](O)[C@@H](O)c5ccc(O)c(OS(=O)(=O)O)c5)NC(=O)[C@@H]5C[C@@H](O)CN5C(=O)[C@H]([C@@H](C)O)NC4=O)cc3)no2)cc1", "note": "[MICAFUNGIN] (X1-[Orn(4R-OH,5R-OH)]T[Hyp][hTyr(3S-OH,4S-OH,3'-OSO3H)][Gln(3R-OH)][Pro(3S-OH,4S-Me)]; lactam 1-C)", "values": [{"measurement": "minimal effective concentration", "setting": "Aspergillus flavus [1]", "result": 0.12, "unit": "µg/mL"}, {"measurement": "EC5", "setting": "Aspergillus flavus [2]", "result": 0.05, "unit": "µg/mL"}, {"measurement": "minimal effective concentration", "setting": "Aspergillus flavus [3]", "result": 0.5, "unit": "µg/mL"}, {"measurement": "Activity", "setting": "Aspergillus terreus [4]", "result": "inactive"}, {"measurement": "minimal effective concentration", "setting": "Aspergillus fumigatus [5]", "result": 0.06, "unit": "µg/mL"}, {"measurement": "Ratio", "setting": "Aspergillus terreus [6]", "result": 1}, {"measurement": "Activity", "setting": "Aspergillus flavus [7]", "result": "inactive"}, {"measurement": "Activity", "setting": "Aspergillus fumigatus [8]", "result": 25, "unit": "%"}, {"measurement": "Activity", "setting": "Aspergillus flavus [9]", "result": 20, "unit": "%"}, {"measurement": "Activity", "setting": "Aspergillus terreus [10]", "result": "inactive"}, {"measurement": "Activity", "setting": "Aspergillus terreus [11]", "result": 29, "unit": "%"}, {"measurement": "Activity", "setting": "Aspergillus fumigatus [12]", "result": "inactive"}, {"measurement": "Ratio", "setting": "Aspergillus flavus [13]", "result": 1.57}, {"measurement": "EC5", "setting": "Aspergillus fumigatus [14]", "result": 0.04, "unit": "µg/mL"}, {"measurement": "Activity", "setting": "Aspergillus terreus [15]", "result": "inactive"}, {"measurement": "Activity", "setting": "Aspergillus fumigatus [16]", "result": 29, "unit": "%"}, {"measurement": "Activity", "setting": "Aspergillus flavus [17]", "result": "inactive"}, {"measurement": "Activity", "setting": "Aspergillus flavus [18]", "result": "inactive"}, {"measurement": "Activity", "setting": "Aspergillus flavus [19]", "result": "inactive"}, {"measurement": "Activity", "setting": "Aspergillus fumigatus [20]", "result": "inactive"}, {"measurement": "Ratio", "setting": "Aspergillus fumigatus [21]", "result": 0.67}, {"measurement": "Activity", "setting": "Aspergillus fumigatus [22]", "result": "inactive"}, {"measurement": "EC5", "setting": "Aspergillus flavus [23]", "result": 0.14, "unit": "µg/mL"}, {"measurement": "minimal effective concentration", "setting": "Aspergillus terreus [24]", "result": 0.25, "unit": "µg/mL"}, {"measurement": "EC5", "setting": "Aspergillus terreus [25]", "result": 0.07, "unit": "µg/mL"}, {"measurement": "minimal effective concentration", "setting": "Aspergillus terreus [26]", "result": 0.12, "unit": "µg/mL"}, {"measurement": "Activity", "setting": "Aspergillus fumigatus [27]", "result": "Active"}, {"measurement": "EC5", "setting": "Aspergillus fumigatus [28]", "result": 0.05, "unit": "µg/mL"}, {"measurement": "Ratio", "setting": "Aspergillus fumigatus [29]", "result": 1}, {"measurement": "Activity", "setting": "Aspergillus terreus [30]", "result": 37, "unit": "%"}, {"measurement": "Activity", "setting": "Aspergillus fumigatus [31]", "result": "inactive"}, {"measurement": "Ratio", "setting": "Aspergillus flavus [32]", "result": 2}, {"measurement": "Activity", "setting": "Aspergillus flavus [33]", "result": 17, "unit": "%"}, {"measurement": "Activity", "setting": "Aspergillus terreus [34]", "result": "inactive"}, {"measurement": "Ratio", "setting": "Aspergillus terreus [35]", "result": 2.04}, {"measurement": "minimal effective concentration", "setting": "Aspergillus fumigatus [36]", "result": 0.25, "unit": "µg/mL"}, {"measurement": "EC5", "setting": "Aspergillus terreus [37]", "result": 0.14, "unit": "µg/mL"}]}]}
